Measured values published in patent publication US12208088B2 (Genentech, Inc., priority 2018, dated 2025).

target: HPK1 (Homo sapiens (Human), UniProt Q92918); test: HPK1 Lantha binding assay ("Lanth"); settings: binding assays; Morrison Ki fit
Experimental: Example B2: HPK1 Lantha Binding Assay (“Lanth”)
Procedure: I. Compound Dilution:
The compounds to be tested were diluted by preparing 12.5 uL/well of 5 mM compound (100×) in columns 2 and 13 and 10 ul/well of DMSO in columns 3-12, 14-23, and wells A1-H1 and I24-P24 of the compound plate using a Bravo liquid handling platform. For the reference compound, the top concentration was 1 mM. To the plate was added 10 ul 2 mM staurosporine in wells J1-P1 and A24-H24. A 11 point 5-fold compound serial dilution was performed using the Bravo liquid handling platform. From the plate were transferred 2.5 ul of the solutions from column 2 and column 13 to the 10 ul of DMSO in columns 3 and 14 & so on. The compound plate was centrifuged at 2500 rpm for 1 min. From the compound plate was transferred 80 nl of the compounds into an assay plate using the Echo liquid handler system. One compound plate makes two assay plates. Each assay plate is sealed and stored in an N2 cabinet.
The following assay concentrations and times were used: 2 nM HPK1, 2 nM Eu-Anti-GST Ab, and 15 nM Tracer222, with 60 min incubation time.
III. HPK Lantha Binding Assay:
For the binding assay, 4 ul 2×HPK1 and Eu-anti-GST antibody were added to each well of the assay plate using a Multidrop reagent dispenser. The solutions were incubated in a 23 C incubator for 1 h. To each well of the assay plate was added 4 ul 2× Tracer-222 using a Multidrop reagent dispenser. The solutions were again incubated in a 23 C incubator for 1 h. The results of the assay were read using an Envision plate reader with the following parameters: TR_FRET, 340 ex/615 and 665em; 100 usec Delay; and 200 usec integration.
Compound Ki was analyzed using Morrison ki fit model in XL-fit • a. fit=(1−((((E+x)+(Ki*(1+(S/Kd))))−(((((E+x)+(Ki*(1+(S/Kd))))^2)−((4*E)*x))^0.5))/(2*E))) • res=(y−fit) • b. Parameters: • E=enzyme concentration • S=Tracer222 concentration, Kd=Tracer222 Kd • All measurements reported using the same units (uM)
Exemplary compounds were tested in the binding assays.

Chain of HPK1 (Q92918 1-346 limits assumed): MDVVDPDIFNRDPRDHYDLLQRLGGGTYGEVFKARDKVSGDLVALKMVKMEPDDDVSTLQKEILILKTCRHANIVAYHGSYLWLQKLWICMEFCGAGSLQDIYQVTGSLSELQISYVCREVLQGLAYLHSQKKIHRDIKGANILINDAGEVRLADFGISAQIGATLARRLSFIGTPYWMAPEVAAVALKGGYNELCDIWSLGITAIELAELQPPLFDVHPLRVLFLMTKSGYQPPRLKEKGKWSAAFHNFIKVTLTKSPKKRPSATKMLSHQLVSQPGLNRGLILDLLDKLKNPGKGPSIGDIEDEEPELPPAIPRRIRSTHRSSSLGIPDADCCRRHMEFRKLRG

Compound | Ki [nM]
CO[C@@H]1CC[C@@]2(CNc3ncc(-c4ccc(N)c(C(=O)N(C)C)c4F)c(Cl)c32)C1 (relative stereo) [Compound 81a, 6-Amino-3-((1R,3R)-4′-chloro-3-methoxy-1′,2′-dihydrospiro[cyclopentane-1,3′-pyrrolo[2,3-b]pyridin]-5′-yl)-2-fluoro-N,N-dimethylbenzamide] | 39.6
CO[C@H]1CC[C@@]2(CNc3ncc(-c4ccc(N)c(C(=O)N(C)C)c4F)c(Cl)c32)C1 (relative stereo) [Compound 81c, 6-Amino-3-((1R,3S)-4′-chloro-3-methoxy-1′,2′-dihydrospiro[cyclopentane-1,3′-pyrrolo[2,3-b]pyridin]-5′-yl)-2-fluoro-N,N-dimethylbenzamide] | 17.7
CN(C)C(=O)c1c(N)ccc(-c2cnc3c(c2Cl)[C@]2(CC[C@](C)(O)C2)CN3)c1F (relative stereo) [Compound 82a, 6-Amino-3-((1R,3S)-4′-chloro-3-hydroxy-3-methyl-1′,2′-dihydrospiro[cyclopentane-1,3′-pyrrolo[2,3-b]pyridin]-5′-yl)-2-fluoro-N,N-dimethylbenzamide] | 8.12
CN(C)C(=O)c1c(N)ccc(-c2cnc3c(c2Cl)[C@]2(CC[C@@H](C(N)=O)C2)CN3)c1F (relative stereo) [Compound 84a, (1R,3R)-5′-(4-amino-3-(dimethylcarbamoyl)-2-fluorophenyl)-4′-chloro-1′,2′-dihydrospiro[cyclopentane-1,3′-pyrrolo[2,3-b]pyridine]-3-carboxamide] | 25.9
CN(C)C(=O)c1c(N)ccc(-c2cnc3c(c2Cl)[C@]2(CC[C@H](C(N)=O)C2)CN3)c1F (relative stereo) [Compound 84c, (1R,3S)-5′-(4-amino-3-(dimethylcarbamoyl)-2-fluorophenyl)-4′-chloro-1′,2′-dihydrospiro[cyclopentane-1,3′-pyrrolo[2,3-b]pyridine]-3-carboxamide] | 2.07
C[C@H]1C[C@@]12CNc1ncc(-c3ccc(N)c(C(=O)N(C)C)c3F)cc12 (relative stereo) [Compound 86a, 6-Amino-2-fluoro-N,N-dimethyl-3-((1R,2S)-2-methyl-1′,2′-dihydrospiro[cyclopropane-1,3′-pyrrolo[2,3-b]pyridin]-5′-yl)benzamide] | 7.9
CN(C)C(=O)c1c(N)ccc(-c2cnc3c(c2Cl)[C@]2(CC[C@H](n4nccn4)C2)CN3)c1F (relative stereo) [Compound 89a, 6-Amino-3-((1R,3S)-4′-chloro-3-(2H-1,2,3-triazol-2-yl)-1′,2′-dihydrospiro[cyclopentane-1,3′-pyrrolo[2,3-b]pyridin]-5′-yl)-2-fluoro-N,N-dimethylbenzamide] | 6
CN(C)C(=O)c1c(N)ccc(-c2cnc3c(c2Cl)[C@]2(CC[C@H](C#N)C2)CN3)c1F (relative stereo) [Compound 91a, 6-Amino-3-((1R,3S)-4′-chloro-3-cyano-1′,2′-dihydrospiro[cyclopentane-1,3′-pyrrolo[2,3-b]pyridin]-5′-yl)-2-fluoro-N,N-dimethylbenzamide] | 5.53
CNC(=O)[C@H]1CC[C@@]2(CNc3ncc(-c4ccc(N)c(C(=O)N(C)C)c4F)c(Cl)c32)C1 (relative stereo) [Compound 98a, (1R,3S)-5′-(4-Amino-3-(dimethylcarbamoyl)-2-fluorophenyl)-4′-chloro-N-methyl-1′,2′-dihydrospiro[cyclopentane-1,3′-pyrrolo[2,3-b]pyridine]-3-carboxamide] | 75.6
CN(C)C(=O)c1c(N)ccc(-c2cnc3c(c2Cl)[C@]2(CC[C@H](C(=O)NCCO)C2)CN3)c1F (relative stereo) [Compound 106a, (1R,3S)-5′-(4-Amino-3-(dimethylcarbamoyl)-2-fluorophenyl)-4′-chloro-N-(2-hydroxyethyl)-1′,2′-dihydrospiro[cyclopentane-1,3′-pyrrolo[2,3-b]pyridine]-3-carboxamide] | 23.6
Cc1noc([C@H]2CC[C@@]3(CNc4ncc(-c5ccc(N)c(C(=O)N(C)C)c5F)c(Cl)c43)C2)n1 (relative stereo) [Compound 108a, 6-Amino-3-((1R,3S)-4′-chloro-3-(3-methyl-1,2,4-oxadiazol-5-yl)-1′,2′-dihydrospiro[cyclopentane-1,3′-pyrrolo[2,3-b]pyridin]-5′-yl)-2-fluoro-N,N-dimethylbenzamide] | 8.27
CN(C)C(=O)c1c(N)ccc(-c2cnc3c(c2Cl)[C@]2(CC[C@@](O)(CC#N)C2)CN3)c1F (relative stereo) [Compound 109c, 6-Amino-3-((1R,3S)-4′-chloro-3-(cyanomethyl)-3-hydroxy-1′,2′-dihydrospiro[cyclopentane-1,3′-pyrrolo[2,3-b]pyridin]-5′-yl)-2-fluoro-N,N-dimethylbenzamide] | 32.5
Cc1cnn([C@H]2CC[C@@]3(CNc4ncc(-c5ccc(N)c(C(=O)N(C)C)c5F)c(Cl)c43)C2)n1 (relative stereo) [Compound 114a, 6-Amino-3-((1R,3S)-4′-chloro-3-(4-methyl-2H-1,2,3-triazol-2-yl)-1′,2′-dihydrospiro[cyclopentane-1,3′-pyrrolo[2,3-b]pyridin]-5′-yl)-2-fluoro-N,N-dimethylbenzamide] | 2.84
CN(C)C(=O)c1c(N)ccc(-c2cnc3c(c2Cl)[C@]2(CC[C@H](N4CCNC4=O)C2)CN3)c1F (relative stereo) [Compound 115a, 6-Amino-3-((1R,3S)-4′-chloro-3-(2-oxoimidazolidin-1-yl)-1′,2′-dihydrospiro[cyclopentane-1,3′-pyrrolo[2,3-b]pyridin]-5′-yl)-2-fluoro-N,N-dimethylbenzamide] | 23

The next lines start with the values.

Ki [nM] | Compound
103 | 1-(3-(1′,2′-Dihydrospiro[cyclopropane-1,3′-pyrrolo[2,3-b]pyridin]-5′-yl)phenyl)piperazin-2-one [Compound 41]
74.2 | O=C1NCCC1c1nc2ccc(-c3cnc4c(c3Cl)C3(CC3)CN4)cc2[nH]1 (racemic) [Compound 283, (±)-3-(6-(4′-Chloro-1′,2′-dihydrospiro[cyclopropane-1,3′-pyrrolo[2,3-b]pyridin]-5′-yl)-1H-benzo[d]imidazol-2-yl)pyrrolidin-2-one]
153 | CN(C)C(=O)c1c(N)ccc(-c2cnc3c(c2Cl)[C@]2(CC[C@@](O)(Cn4cncn4)C2)CN3)c1F (relative stereo) [Compound 116a]
247 | CN(C)C(=O)c1c(N)ccc(-c2cnc3c(c2Cl)[C@]2(CC[C@@](O)(Cn4ccnc4)C2)CN3)c1F (relative stereo) [Compound 117a, 3-((1R,3S)-3-((1H-Imidazol-1-yl)methyl)-4′-chloro-3-hydroxy-1′,2′-dihydrospiro[cyclopentane-1,3′-pyrrolo[2,3-b]pyridin]-5′-yl)-6-amino-2-fluoro-N, N-dimethylbenzamide]
76.8 | CN(C)C(=O)c1c(N)ccc(-c2cnc3c(c2Cl)[C@]2(CC[C@H](n4cnc(N)n4)C2)CN3)c1F (relative stereo) [Compound 119a, 6-Amino-3-((1R,3S)-3-(3-amino-1H-1,2,4-triazol-1-yl)-4′-chloro-1′,2′-dihydrospiro[cyclopentane-1,3′-pyrrolo[2,3-b]pyridin]-5′-yl)-2-fluoro-N,N-dimethylbenzamide]
479 | CN(C)C(=O)c1c(N)ccc(-c2cnc3c(c2Cl)[C@]2(CC[C@H](N4CCOCC4)C2)CN3)c1F (relative stereo) [Compound 120a, 6-Amino-3-((1R,3S)-4′-chloro-3-morpholino-1′,2′-dihydrospiro[cyclopentane-1,3′-pyrrolo[2,3-b]pyridin]-5′-yl)-2-fluoro-N,N-dimethylbenzamide]
381 | CN(C)C(=O)c1c(N)ccc(-c2cnc3c(c2Cl)[C@]2(CC[C@H](N4CCCC4)C2)CN3)c1F (relative stereo) [Compound 121a, 6-Amino-3-((1R,3S)-4′-chloro-3-(pyrrolidin-1-yl)-1′,2′-dihydrospiro[cyclopentane-1,3′-pyrrolo[2,3-b]pyridin]-5′-yl)-2-fluoro-N,N-dimethylbenzamide]
35 | CN(C)C(=O)c1c(N)ccc(-c2cnc3c(c2Cl)[C@]2(CC[C@H](N4CCOC4=O)C2)CN3)c1F (relative stereo) [Compound 124a, 6-Amino-3-((1R,3S)-4′-chloro-3-(2-oxooxazolidin-3-yl)-1′,2′-dihydrospiro[cyclopentane-1,3′-pyrrolo[2,3-b]pyridin]-5′-yl)-2-fluoro-N,N-dimethylbenzamide]
3.56 | Cc1cnn([C@H]2CC[C@@]3(CNc4ncc(-c5ccc(N)c(C(=O)N(C)C)c5F)c(Cl)c43)C2)c1 (relative stereo) [Compound 125a, 6-Amino-3-((1R,3S)-4′-chloro-3-(4-methyl-1H-pyrazol-1-yl)-1′,2′-dihydrospiro[cyclopentane-1,3′-pyrrolo[2,3-b]pyridin]-5′-yl)-2-fluoro-N,N-dimethylbenzamide]
